According to patent US8669247B2, “2,5-disubstituted arylsulfonamide CCR3 antagonists” (Axikin Pharmaceuticals, Inc., priority 2009, dated 2014):

Molecular target: T1, CCR3 receptor (UniProt P51677)
T1 sequence (P51677 1-355): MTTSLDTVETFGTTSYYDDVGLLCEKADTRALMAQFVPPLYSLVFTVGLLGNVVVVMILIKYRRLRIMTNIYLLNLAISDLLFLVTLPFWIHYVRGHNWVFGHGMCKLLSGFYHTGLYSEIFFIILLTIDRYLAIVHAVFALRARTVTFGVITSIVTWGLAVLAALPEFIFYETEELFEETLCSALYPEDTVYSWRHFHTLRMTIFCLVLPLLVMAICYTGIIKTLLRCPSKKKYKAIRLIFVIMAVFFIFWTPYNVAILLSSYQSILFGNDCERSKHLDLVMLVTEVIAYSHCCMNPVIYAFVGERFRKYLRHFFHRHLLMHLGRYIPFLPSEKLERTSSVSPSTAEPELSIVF
Experiment: CCR3 Receptor Binding Assay ([125I]-labeled human eotaxin/CCL11 displacement on cells)
Protocol: Cells were washed once with PBS and resuspended in a binding buffer (25 mM HEPES pH 7.6, 5 mM MgCl2, 1 mM CaCl2, 0.5% BSA, 0.1% NaN3), […] of cell suspension (2×10^5 cells/well) and 0.1 nM [^125I]-labeled human eotaxin/CCL11 (2000 Ci/mmol specific activity) were mixed in a 96-well U-bottom polypropylene plate, and incubated for 60 min at room temperature for the binding reaction. The cell suspension was then transferred to a filtration plate (#MAFB, Millipore), and washed 3 times with the binding buffer containing 0.5 M NaCl, scintillant added, and the radioactivity was counted on a TopCount (Packard). For the determination of non-specific binding, the cell suspension and [^125I]-labeled human eotaxin/CCL11 were incubated in the presence of 500 nM of unlabeled human eotaxin/CCL11. See, lino et al., “Molecular cloning and functional characterization of cynomolgus monkey (Macaca fascicularis) CC chemokine receptor, CCR3,” Cytokine 2002, 19, 276-286.

[1] = Free (free form of the compound)
[2] = HCl: hydrochloric acid salt of the corresponding compound

Row | SMILES | Ki [1] | Ki [2] | further results
1 | Cc1ccc(C)c(Oc2ccc(C#N)cc2S(=O)(=O)N2CCNCC2)c1 [Compound 51, 4-(2,5-Dimethylphenoxy)-3-(piperazin-1-ylsulfonyl)benzonitrile] | 100 to 500 nM | 25 to 100 nM | 
2 | CC1CN(S(=O)(=O)c2cc(C#N)ccc2Oc2cc(F)ccc2F)CC(C)N1 (stereo not drawn) [Compound 53, 4-(2,5-Difluorophenoxy)-3-(3,5-dimethylpiperazin-1-ylsulfonyl)benzonitrile] | 25 to 100 nM |  | 
3 | CC(C)N1CCN(S(=O)(=O)c2cc(C#N)ccc2Oc2cc(F)ccc2F)CC1 [Compound 54, 4-(2,5-Difluorophenoxy)-3-(4-isopropylpiperazin-1-ylsulfonyl)benzonitrile] | 100 to 500 nM | 25 to 100 nM | 
4 | CCC(CC)N1CCN(S(=O)(=O)c2cc(C#N)ccc2Oc2cc(F)ccc2F)CC1 [Compound 55, 4-(2,5-Difluorophenoxy)-3-(4-(pentan-3-yl)piperazin-1-ylsulfonyl)benzonitrile] | > 5 nM |  | 
5 | N#Cc1ccc(Oc2cc(F)ccc2F)c(S(=O)(=O)N2CCN(C3CCCC3)CC2)c1 [Compound 56, 3-(4-Cyclopentylpiperazin-1-ylsulfonyl)-4-(2,5-difluorophenoxy)benzonitrile] | 25 to 100 nM | 25 to 100 nM | 
6 | CN1CCCN(S(=O)(=O)c2cc(C#N)ccc2Oc2cc(F)ccc2F)CC1 [Compound 57, 4-(2,5-Difluorophenoxy)-3-(4-methyl-1,4-diazepan-1-ylsulfonyl)benzonitrile] |  | > 5 nM | 
7 | CN(C)C1CCN(S(=O)(=O)c2cc(C#N)ccc2Oc2cc(F)ccc2F)CC1 [Compound 59, 4-(2,5-Difluorophenoxy)-3-(4-(dimethylamino)piperidin-1-ylsulfonyl)benzonitrile] | > 5 nM | > 5 nM | 
8 | N#Cc1ccc(Oc2cc(F)ccc2F)c(S(=O)(=O)N2CCC(N3CCCC3)CC2)c1 [Compound 60, 4-(2,5-Difluorophenoxy)-3-(4-(pyrrolidin-1-yl)piperidin-1-ylsulfonyl)benzonitrile] | > 5 nM | > 5 nM | 
9 | O=[N+]([O-])c1ccc(Oc2cc(Cl)ccc2Cl)c(S(=O)(=O)N2CCC(N3CCCC3)CC2)c1 [Compound 61] | 10 to 25 nM |  | 
10 | CCN(CC)CCNS(=O)(=O)c1cc(C#N)ccc1Oc1cc(F)ccc1F [Compound 62, 5-Cyano-N-(2-(diethylamino)ethyl)-2-(2,5-difluorophenoxy)benzenesulfonamide] |  | > 5 nM | 
11 | N#Cc1ccc(Oc2cc(F)ccc2F)c(S(=O)(=O)NCCN2CCCC2)c1 [Compound 63, 5-Cyano-2-(2,5-difluorophenoxy)-N-(2-(pyrrolidin-1-yl)ethyl)benzenesulfonamide] | > 5 nM | > 5 nM | 
12 | N#Cc1ccc(Oc2cc(F)ccc2F)c(S(=O)(=O)NCCN2CCCCC2)c1 [Compound 64, 5-Cyano-2-(2,5-difluorophenoxy)-N-(2-(piperidin-1-yl)ethyl)benzenesulfonamide] | > 5 nM | > 5 nM | 
13 | Cc1ccc(C)c(Sc2ccc(C#N)cc2S(=O)(=O)N2CCNCC2)c1 [Compound 65, 4-(2,5-Dimethylphenylthio)-3-(piperazin-1-ylsulfonyl)benzonitrile] | > 5 nM |  | 
14 | Cc1ccc(C)c(Sc2ccc(C#N)cc2S(=O)(=O)N2CC(C)NC(C)C2)c1 (stereo not drawn) [Compound 66, 4-(2,5-Dimethylphenylthio)-3-(3,5-dimethylpiperazin-1-ylsulfonyl)-benzonitrile] | ≤ 10 nM |  | 
15 | Cc1ccc(C)c(Sc2ccc(C#N)cc2S(=O)(=O)N2CCN(C(C)C)CC2)c1 [Compound 67, 4-(2,5-Dimethylphenylthio)-3-(4-isopropylpiperazin-1-ylsulfonyl)benzonitrile] | 25 to 100 nM | 100 to 500 nM | 
16 | CCC(CC)N1CCN(S(=O)(=O)c2cc(C#N)ccc2Sc2cc(C)ccc2C)CC1 [Compound 68, 4-(2,5-Dimethylphenylthio)-3-(4-(pentan-3-yl)piperazin-1-ylsulfonyl)benzonitrile] | 25 to 100 nM | 25 to 100 nM | 
17 | Cc1ccc(C)c(Sc2ccc(C#N)cc2S(=O)(=O)N2CCN(C3CCCC3)CC2)c1 [Compound 69, 3-(4-Cyclopentylpiperazin-1-ylsulfonyl)-4-(2,5-dimethylphenylthio)-benzonitrile] | 25 to 100 nM | 100 to 500 nM | 
18 | Cc1ccc(C)c(Sc2ccc(C#N)cc2S(=O)(=O)N2CCCN(C)CC2)c1 [Compound 70, 4-(2,5-Dimethylphenylthio)-3-(4-methyl-1,4-diazepan-1-ylsulfonyl)benzonitrile] | 100 to 500 nM |  | 

Row | SMILES | Ki [1] | Ki [2] | further results
19 | Cc1ccc(C)c(Sc2ccc(C#N)cc2S(=O)(=O)N2CCOCC2)c1 [Compound 71, 4-(2,5-Dimethylphenylthio)-3-(morpholinosulfonyl)benzonitrile] | > 5 nM |  | 
20 | Cc1ccc(C)c(Sc2ccc(C#N)cc2S(=O)(=O)N2CCC(N(C)C)CC2)c1 [Compound 72, 3-(4-(Dimethylamino)piperidin-1-ylsulfonyl)-4-(2,5-dimethylphenylthio)-benzonitrile] | > 5 nM | 25 to 100 nM | 
21 | CCN(CC)CCNS(=O)(=O)c1cc(C#N)ccc1Sc1cc(C)ccc1C [Compound 73, 5-Cyano-N-(2-(diethylamino)ethyl)-2-(2,5-dimethylphenylthio)-benzenesulfonamide] |  | 25 to 100 nM | 
22 | Cc1ccc(C)c(Sc2ccc(C#N)cc2S(=O)(=O)N2CCC(N3CCCC3)CC2)c1 [Compound 74, 4-(2,5-Dimethylphenylthio)-3-(4-(pyrrolidin-1-yl)piperidin-1-ylsulfonyl)-benzonitrile] | 10 to 25 nM | ≤ 10 nM | 
23 | Cc1ccc(C)c(Sc2ccc([N+](=O)[O-])cc2S(=O)(=O)N2CCC(N3CCCC3)CC2)c1 [Compound 75, 1-(2-(2,5-Dimethylphenylthio)-5-nitrophenylsulfonyl)-4-(pyrrolidin-1-yl)piperidine] |  | ≤ 10 nM | 
24 | N#Cc1ccc(Sc2cc(Cl)ccc2Cl)c(S(=O)(=O)N2CCNCC2)c1 [Compound 76, 4-(2,5-Dichlorophenylthio)-3-(piperazin-1-ylsulfonyl)benzonitrile] | ≤ 10 nM | ≤ 10 nM | 
25 | CC(C)N1CCN(S(=O)(=O)c2cc(C#N)ccc2Sc2cc(Cl)ccc2Cl)CC1 [Compound 77, 4-(2,5-Dichlorophenylthio)-3-(4-isopropylpiperazin-1-ylsulfonyl)benzonitrile] | ≤ 10 nM | ≤ 10 nM | 
26 | CCC(CC)N1CCN(S(=O)(=O)c2cc(C#N)ccc2Sc2cc(Cl)ccc2Cl)CC1 [Compound 78, 4-(2,5-Dichlorophenylthio)-3-(4-(pentan-3-yl)piperazin-1-ylsulfonyl)-benzonitrile] | 25 to 100 nM | 25 to 100 nM | 
27 | CC1CN(S(=O)(=O)c2cc(C#N)ccc2Sc2cc(Cl)ccc2Cl)CC(C)N1 (stereo not drawn) [Compound 79, 4-(2,5-Dichlorophenylthio)-3-(3,5-dimethylpiperazin-1-ylsulfonyl)benzonitrile] | ≤ 10 nM | ≤ 10 nM | 
28 | N#Cc1ccc(Sc2cc(Cl)ccc2Cl)c(S(=O)(=O)N2CCN(C3CCCC3)CC2)c1 [Compound 80, 3-(4-Cyclopentylpiperazin-1-ylsulfonyl)-4-(2,5-dichlorophenylthio)-benzonitrile] | ≤ 10 nM | ≤ 10 nM | Ki ((CO2H)2 salt): 25 to 100 nM; Ki (EtSO3H salt): ≤ 10 nM; Ki (H2SO4 salt): ≤ 10 nM; Ki (HNO3 salt): 25 to 100 nM; Ki (MeSO3H salt): ≤ 10 nM
29 | CN1CCCN(S(=O)(=O)c2cc(C#N)ccc2Sc2cc(Cl)ccc2Cl)CC1 [Compound 81, 4-(2,5-Dichlorophenylthio)-3-(4-methyl-1,4-diazepan-1-ylsulfonyl)-benzonitrile] | ≤ 10 nM | 10 to 25 nM | 
30 | CN(C)C1CCN(S(=O)(=O)c2cc(C#N)ccc2Sc2cc(Cl)ccc2Cl)CC1 [Compound 83, 4-(2,5-Dichlorophenylthio)-3-(4-(dimethylamino)piperidin-1-ylsulfonyl)benzonitrile] | 25 to 100 nM | ≤ 10 nM | 
31 | N#Cc1ccc(Sc2cc(Cl)ccc2Cl)c(S(=O)(=O)N2CCC(N3CCCC3)CC2)c1 [Compound 84, 4-(2,5-Dichlorophenylthio)-3-(4-(pyrrolidin-1-yl)piperidin-1-ylsulfonyl)benzonitrile] | ≤ 10 nM | ≤ 10 nM | 
32 | Cc1ccc(C)c(Sc2ccc(C#N)cc2S(=O)(=O)N2CCSCC2)c1 [Compound 85, 4-(2,5-Dimethylphenylthio)-3-(thiomorpholinosulfonyl)benzonitrile] | > 5 nM |  | 
33 | CC1CCN(S(=O)(=O)c2cc(C#N)ccc2Oc2cc(Cl)ccc2Cl)CC1 [Compound 87, 4-(2,5-Dichlorophenoxy)-3-(4-methylpiperidin-1-ylsulfonyl)benzonitrile] | > 5 nM |  | 
34 | CC(C)N1CCN(S(=O)(=O)c2cc(C#N)ccc2Oc2cc(Cl)ccc2Cl)CC1 [Compound 88, 4-(2,5-Dichlorophenoxy)-3-(4-isopropylpiperazin-1-ylsulfonyl)benzonitrile] | ≤ 10 nM |  | 
35 | CCC(CC)N1CCN(S(=O)(=O)c2cc(C#N)ccc2Oc2cc(Cl)ccc2Cl)CC1 [Compound 89, 4-(2,5-Dichlorophenoxy)-3-(4-(pentan-3-yl)piperazin-1-ylsulfonyl)-benzonitrile] | 10 to 25 nM |  | 
